The target of assay [1] is T1, IL-17A : IL-17RA binding (Homo sapiens, UniProt Q16552, K93Q).
T1 construct: Name: IL-17A-Flag
Briefly: IL-17A(FLAG-tagged):IL-17RA(His-tagged) binding disruption Eu-HTRF assay, Protocol 1. The following applies: FLAG-IL-17A 2.5 nM at 2x final concentration; average if tested more than once. An outline of the steps:
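IC50 came from a one-site competition fit of the acceptor/donor (665/620 nm) HTRF ratio. His-tagged IL-17RA, Eu-anti-FLAG and D2-anti-His were added after a 1 h rt compound preincubation with FLAG-tagged IL-17A dimer in PBS/0.01% Triton X-100, followed by 2 h at rt before reading.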
(TR-FRET usually uses a lanthanide donor and a delayed reading to cut background.)

The subject of assay [2] is IL-17A-induced G-CSF production in human normal keratinocyte (NHK). Put plainly: NHK assay: IL-17A-induced G-CSF production in normal human keratinocytes. It counts as cell-based. Particulars: Homo sapiens, Keratinocyte, 24 h, IL-17A 5 ng/mL, average if tested more than once. The procedure, abridged: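 Stimulus rhIL-17A 5 ng/mL final, premixed 1 h rt with compound; adult NHK, 5% FBS, 0.2% DMSO. Viability by CellTiter-Glo vs DMSO.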

T1 sequence (Q16552 with tags, fused parts or gaps K93Q): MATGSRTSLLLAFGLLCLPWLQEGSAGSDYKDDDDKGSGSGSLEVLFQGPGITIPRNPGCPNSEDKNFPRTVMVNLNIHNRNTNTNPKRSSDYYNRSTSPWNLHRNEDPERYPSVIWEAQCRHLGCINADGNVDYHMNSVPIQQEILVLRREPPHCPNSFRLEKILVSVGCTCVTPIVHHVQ

As to `C[C@@H](NC(=O)CCC(F)(F)F)c1ccc2[nH]c([C@@H](NC(=O)c3cnnn3CCOC(F)F)C3CCC(F)(F)CC3)nc2c1` [Example 34, N—[(S)-(4,4-Difluorocyclohexyl)-[6-[(1R)-1-(4,4,4-trifluorobutanoylamino)ethyl]-1H-benzimidazol-2-yl]methyl]-3-[2-(difluoromethoxy)ethyl]triazole-4-carboxamide], the IC50 in assay [1] is > 0.1 µM; in assay [2], 0.05 to 0.1 µM.
The matching figures for `CC(C)n1nccc1C(=O)N[C@@H](CO[C@@H](C)C(F)(F)F)c1nc2ccc([C@H](NC(=O)CC3CC(F)(F)C3)C3CC3)cc2[nH]1` (relative stereo) [Example 158, N—((R*)-1-(6-((R)-Cyclopropyl(2-(3,3-difluorocyclobutyl)acetamido)methyl)-1H-benzo[d]imidazol-2-yl)-2-(((S)-1,1,1-trifluoropropan-2-yl)oxy)ethyl)-1-isopropyl-1H-pyrazole-5-carboxamide]: < 0.05 µM and > 0.1 µM.
The matching figures for `Cc1nonc1C(=O)N[C@@H](CC(C)(C)C(F)(F)F)c1nc2cc([C@@H](NC(=O)CCC(F)(F)F)C3CC3)ccc2[nH]1` (relative stereo) [Example 192, N—((S*)-1-(5-((S*)-Cyclopropyl(4,4,4-trifluorobutanamido)methyl)-1H-benzo[d]imidazol-2-yl)-4,4,4-trifluoro-3,3-dimethylbutyl)-4-methyl-1,2,5-oxadiazole-3-carboxamide]: > 0.1 µM and > 0.1 µM.
The matching figures for `C[C@@H](NC(=O)CCC(F)(F)F)c1ccc2[nH]c([C@@H](NC(=O)c3cn(CCCC(F)(F)F)nn3)C3CCC(F)(F)CC3)nc2c1` [Example 21, N—[(S)-(4,4-Difluorocyclohexyl)-[6-[(1R)-1-(4,4,4-trifluorobutanoylamino)ethyl]-1H-benzimidazol-2-yl]methyl]-1-(4,4,4-trifluorobutyl)triazole-4-carboxamide]: > 0.1 µM and > 0.1 µM.
In the case of `Cc1nonc1C(=O)N[C@H](c1nc2cc([C@H](NC(=O)CCC(F)(F)F)C3CC3)ccc2[nH]1)[C@@H]1CCCC(F)(F)C1` [Example 263, N—((S)-(5-((R)-Cyclopropyl(4,4,4-trifluorobutanamido)methyl)-1H-benzo[d]imidazol-2-yl)((R)-3,3-difluorocyclohexyl)methyl)-4-methyl-1,2,5-oxadiazole-3-carboxamide], the IC50 in assay [1] is < 0.05 µM; in assay [2] it was 0.05 to 0.1 µM.
The like results for `C[C@@H](NC(=O)CCC(F)(F)F)c1ccc2[nH]c([C@@H](NC(=O)c3cnn(CC(F)F)n3)C3CCC(F)(F)CC3)nc2c1` [Example 37, N—[(S)-(4,4-Difluorocyclohexyl)-[6-[(1R)-1-(4,4,4-trifluorobutanoylamino)ethyl]-1H-benzimidazol-2-yl]methyl]-2-(2,2-difluoroethyl)triazole-4-carboxamide] were, in that order, > 0.1 µM and > 0.1 µM.
`CC(C)n1nccc1C(=O)N[C@H](c1nc2cc([C@@H](C)NC(=O)CC(C(F)(F)F)C(F)(F)F)ccc2[nH]1)C1CCC(F)(F)CC1` [Example 125, N—((S)-(4,4-Difluorocyclohexyl)(5-((R)-1-(4,4,4-trifluoro-3-(trifluoromethyl)butanamido)ethyl)-1H-benzo[d]imidazol-2-yl)methyl)-1-isopropyl-1H-pyrazole-5-carboxamide]: the IC50 was > 0.1 µM in assay [1] and < 0.05 µM in assay [2].
With `C[C@@H](NC(=O)CCC(F)(F)F)c1ccc2[nH]c([C@@H](NC(=O)C3(C(F)(F)F)CC3)C3CCC(F)(F)CC3)nc2c1` [Example 97, N—((S)-(4,4-Difluorocyclohexyl)(5-((R)-1-(4,4,4-trifluorobutanamido)ethyl)-1H-benzo[d]imidazol-2-yl)methyl)-1-(trifluoromethyl)cyclopropane-1-carboxamide], the IC50 in assay [1] and in assay [2] was > 0.1 µM each time.
`Cc1nonc1C(=O)N[C@H](c1nc2ccc([C@H](NC(=O)CC3CC(F)(F)C3)C3CC3)cc2[nH]1)[C@@H]1CCCCO1` (relative stereo) [Example 248, N—((R*)-(6-((R)-Cyclopropyl(2-(3,3-difluorocyclobutyl)acetamido)methyl)-1H-benzo[d]imidazol-2-yl)((S*)-tetrahydro-2H-pyran-2-yl)methyl)-4-methyl-1,2,5-oxadiazole-3-carboxamide]: the IC50 in assay [1] is 0.05 to 0.1 µM; in assay [2], > 0.1 µM.
The like results for `C[C@@H](NC(=O)CCC(F)(F)F)c1ccc2[nH]c([C@@H](NC(=O)c3cnn(CC45CC(C#N)(C4)C5)n3)C3CCC(F)(F)CC3)nc2c1` [Example 78, 2-((3-Cyanobicyclo[1.1.1]pentan-1-yl)methyl)-N—((S)-(4,4-difluorocyclohexyl)(5-((R)-1-(4,4,4-trifluorobutanamido)ethyl)-1H-benzo[d]imidazol-2-yl)methyl)-2H-1,2,3-triazole-4-carboxamide] were, in that order, > 0.1 µM and > 0.1 µM.
With `Cn1nccc1C(=O)N[C@H](c1nc2cc(C(CC3CCC3)NC(=O)CCC(F)(F)F)ccc2[nH]1)C1CCC(F)(F)CC1` (single isomer, unassigned) [Example 46, N—((S)-(5-((S*)-2-Cyclobutyl-1-(4,4,4-trifluorobutanamido)ethyl)-1H-benzo[d]imidazol-2-yl)(4,4-difluorocyclohexyl)methyl)-1-methyl-1H-pyrazole-5-carboxamide], the concentration for half-maximal inhibition (IC50) in assay [1] and in assay [2] was > 0.1 µM in each case.
Regarding `CC(CC(=O)N[C@H](C)c1ccc2nc([C@@H](NC(=O)c3ccnn3CCC(F)(F)F)C3CCC(F)(F)CC3)[nH]c2c1)C(F)(F)F` (single isomer, unassigned) [Example 134, N—((S)-(4,4-Difluorocyclohexyl)(6-((R)-1-((R*)-4,4,4-trifluoro-3-methylbutanamido)ethyl)-1H-benzo[d]imidazol-2-yl)methyl)-1-(3,3,3-trifluoropropyl)-1H-pyrazole-5-carboxamide], the IC50 in assay [1] and in assay [2] was > 0.1 µM each time.
`[2H]C([2H])([2H])C([2H])([2H])n1nccc1C(=O)N[C@@H](COC(C)(C)C(F)(F)F)c1nc2ccc([C@H](NC(=O)CC3CC(F)(F)C3)C3CC3)cc2[nH]1` [Example 76, N—((R)-1-(6-((R)-Cyclopropyl(2-(3,3-difluorocyclobutyl)acetamido)methyl)-1H-benzo[d]imidazol-2-yl)-2-((1,1,1-trifluoro-2-methylpropan-2-yl)oxy)ethyl)-1-(ethyl-d5)-1H-pyrazole-5-carboxamide]: the concentration for half-maximal inhibition (IC50) in assay [1] and in assay [2] was < 0.05 µM throughout.
Turning to `C[C@@H](NC(=O)CC(C(F)(F)F)C(F)(F)F)c1ccc2[nH]c([C@@H](NC(=O)c3cc(F)ccc3F)C3CCC(F)(F)CC3)nc2c1` [Example 130, N—((S)-(4,4-Difluorocyclohexyl)(6-((R)-1-(4,4,4-trifluoro-3-(trifluoromethyl)butanamido)ethyl)-1H-benzo[d]imidazol-2-yl)methyl)-2,5-difluorobenzamide], the 50% inhibitory concentration (IC50) in assay [1] and in assay [2] was > 0.1 µM in each case.

As a reminder, the IC50 is the concentration that inhibits the measured activity by half. Read a low IC50 as inhibition by little substance.

The record behind these values is patent US20240376085A1 (Janssen Pharmaceutica NV, priority 2021, published 2024).
